Results from ChEMBL document CHEMBL1201862, “PubChem BioAssay data set” (2004).
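Five compound concentrations were applied to cells in 96-well plates for 48 hours; endpoints were derived by simple linear interpolation of the resulting dose-response curve. GI50 marks 50% less growth.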 Active and inactive are the calls of the source. Rule as the data show it: active = GI50 up to about 1.1 µM and inactive = higher.

Legend:
Experiment in all cases: NCI tumour cell line growth inhibition, 48 h
[1] = tested on: Malme-3M
[2] = tested on: EKVX
[3] = tested on: UO-31
[4] = tested on: OVCAR-5
[5] = tested on: SK-MEL-2
[6] = tested on: U-251
[7] = tested on: LOX IMVI
[8] = tested on: SF-268
[9] = tested on: SK-OV-3
[10] = tested on: COLO 205
[11] = tested on: TK-10
[12] = tested on: HCT-15
[13] = tested on: HOP-62
[14] = tested on: A549
[15] = tested on: MOLT-4
[16] = tested on: SW-620
[17] = tested on: HCC 2998
[18] = tested on: RPMI-8226
[19] = tested on: A498
[20] = tested on: CCRF-CEM

SMILES	GI50 [1]	GI50 [2]	GI50 [3]	GI50 [4]	GI50 [5]	GI50 [6]	GI50 [7]	GI50 [8]	GI50 [9]	GI50 [10]	GI50 [11]	GI50 [12] [µM]	GI50 [13]	GI50 [14]	GI50 [15]	GI50 [16]	GI50 [17]	GI50 [18]	GI50 [19]	GI50 [20]
O=C1c2ccccc2C(=O)c2c(OCCOCCO)cccc21	74.3 µM (inactive)	> 100 µM (inactive)	38.9 µM (inactive)	> 100 µM (inactive)	> 100 µM (inactive)	> 100 µM (inactive)	50.2 µM (inactive)	44.9 µM (inactive)	> 100 µM (inactive)	> 100 µM (inactive)	53.6 µM (inactive)	63.7	> 100 µM (inactive)	> 100 µM (inactive)	58.3 µM (inactive)	57.5 µM (inactive)	–	–	–	–
COC(=O)C1C(C(=O)OC)C1(Br)CBr (centres undefined)	–	25.1 µM (inactive)	18.4 µM (inactive)	25.4 µM (inactive)	> 100 µM (inactive)	> 100 µM (inactive)	20.9 µM (inactive)	28.9 µM (inactive)	> 100 µM (inactive)	20 µM (inactive)	> 100 µM (inactive)	17.9	> 100 µM (inactive)	> 100 µM (inactive)	6.15 µM (inactive)	31.7 µM (inactive)	> 100 µM (inactive)	16.5 µM (inactive)	> 100 µM (inactive)	–
O=C1Nc2ccccc2/C1=N/NC(=S)Nc1ccccc1Cl	3.44 µM (inactive)	4.34 µM (inactive)	3.32 µM (inactive)	26.5 µM (inactive)	13.8 µM (inactive)	3.56 µM (inactive)	2.52 µM (inactive)	0.706 µM (active)	10.7 µM (inactive)	3.63 µM (inactive)	2.1 µM (inactive)	2.31	11.5 µM (inactive)	3.58 µM (inactive)	1.43 µM (inactive)	5.9 µM (inactive)	34.7 µM (inactive)	–	7.96 µM (inactive)	0.724 µM (active)
CCOP(=O)(OCC)C(Cc1ccc(OC)c(OC)c1)N=C(c1ccccc1)c1ccccc1 (centres undefined)	–	–	40.4 µM (inactive)	70.5 µM (inactive)	–	46.1 µM (inactive)	–	> 100 µM (inactive)	–	18.9 µM (inactive)	40.8 µM (inactive)	32.5	–	26.5 µM (inactive)	–	47.6 µM (inactive)	24.6 µM (inactive)	18.8 µM (inactive)	56.8 µM (inactive)	24 µM (inactive)
COc1ccc(C(CC(=O)c2cccs2)C(=O)c2ccc3c(c2)OCO3)cc1 (centres undefined)	97.7 µM (inactive)	> 100 µM (inactive)	–	–	–	> 100 µM (inactive)	> 100 µM (inactive)	> 100 µM (inactive)	> 100 µM (inactive)	> 100 µM (inactive)	> 100 µM (inactive)	> 100	> 100 µM (inactive)	> 100 µM (inactive)	> 100 µM (inactive)	> 100 µM (inactive)	> 100 µM (inactive)	59.8 µM (inactive)	72.1 µM (inactive)	> 100 µM (inactive)
C/C1=C\[C@@H](C)C[C@@H](C)OC(=O)[C@@H](C)NC(=O)[C@H](Cc2ccc(O)c(Br)c2)N(C)C(=O)CNC(=O)[C@H](C)C1	0.0328 µM (active)	0.117 µM (active)	0.026 µM (active)	13 µM (inactive)	–	< 0.01 µM (active)	< 0.01 µM (active)	< 0.0193 µM (active)	< 0.01 µM (active)	< 0.01 µM (active)	< 0.0157 µM (active)	< 0.01	< 0.01 µM (active)	< 0.01 µM (active)	0.143 µM (active)	< 0.01 µM (active)	< 0.01 µM (active)	< 0.01 µM (active)	< 0.0106 µM (active)	< 0.01 µM (active)
CCOC(=O)CCC(NC(=O)c1ccc(Nc2nc3cc(C(F)(F)F)ccc3nc2C(=O)OCC)cc1)C(=O)OCC (centres undefined)	–	15.9 µM (inactive)	11.6 µM (inactive)	16.6 µM (inactive)	14.1 µM (inactive)	11.3 µM (inactive)	16.8 µM (inactive)	14.1 µM (inactive)	–	4.14 µM (inactive)	–	29.9	14 µM (inactive)	8.63 µM (inactive)	> 100 µM (inactive)	18.6 µM (inactive)	30.8 µM (inactive)	24.9 µM (inactive)	–	> 100 µM (inactive)
C[C@H]1COC2(c3ccccc3)CCC(=O)N12 (some centres undefined)	> 100 µM (inactive)	> 100 µM (inactive)	–	> 100 µM (inactive)	> 100 µM (inactive)	> 100 µM (inactive)	> 100 µM (inactive)	> 100 µM (inactive)	–	> 100 µM (inactive)	> 100 µM (inactive)	> 100	> 100 µM (inactive)	> 100 µM (inactive)	–	> 100 µM (inactive)	–	> 100 µM (inactive)	> 100 µM (inactive)	> 100 µM (inactive)
Cc1c(/C=N/NC(=O)c2ccccc2O)c(=O)n(-c2ccccc2)n1C	> 100 µM (inactive)	49.2 µM (inactive)	54.7 µM (inactive)	–	> 100 µM (inactive)	> 100 µM (inactive)	45.4 µM (inactive)	> 100 µM (inactive)	> 100 µM (inactive)	> 100 µM (inactive)	> 100 µM (inactive)	29.2	58.3 µM (inactive)	> 100 µM (inactive)	72.6 µM (inactive)	> 100 µM (inactive)	> 100 µM (inactive)	48.2 µM (inactive)	–	50.2 µM (inactive)
O=c1cc(O)ccn1C1C=C(CO)C(O)C1O (centres undefined)	> 625 µM (inactive)	–	> 625 µM (inactive)	–	> 625 µM (inactive)	> 625 µM (inactive)	455 µM (inactive)	> 625 µM (inactive)	> 625 µM (inactive)	–	–	> 625	> 625 µM (inactive)	> 625 µM (inactive)	–	> 625 µM (inactive)	> 625 µM (inactive)	411 µM (inactive)	–	> 625 µM (inactive)
O=c1[nH]c2ccccc2n1CCCN1CCC(n2c(=O)[nH]c3cc(Cl)ccc32)CC1 [DOMPERIDONE]	17.5 µM (inactive)	22.8 µM (inactive)	4.7 µM (inactive)	20.2 µM (inactive)	19.2 µM (inactive)	–	–	–	23.7 µM (inactive)	12.7 µM (inactive)	20.2 µM (inactive)	18.7	18.3 µM (inactive)	21.8 µM (inactive)	13.9 µM (inactive)	17.3 µM (inactive)	16.7 µM (inactive)	20.1 µM (inactive)	23 µM (inactive)	27.8 µM (inactive)
COc1ccc(OC)c2c1C(=O)C(Cl)=C(N1CCN(CCOCCO)CC1)C2=O	19.8 µM (inactive)	18.9 µM (inactive)	16.4 µM (inactive)	21 µM (inactive)	–	21.4 µM (inactive)	–	13.6 µM (inactive)	19.6 µM (inactive)	> 10 µM (inactive)	19 µM (inactive)	7.38	5.07 µM (inactive)	20.5 µM (inactive)	4.32 µM (inactive)	8.85 µM (inactive)	12.4 µM (inactive)	2.94 µM (inactive)	16.9 µM (inactive)	2.72 µM (inactive)
C[C@H]1C(=O)O[C@@H]2CCN3CC=C(COC(=O)[C@](C)(O)[C@@]1(C)O)[C@H]23	–	> 100 µM (inactive)	> 100 µM (inactive)	> 100 µM (inactive)	> 100 µM (inactive)	> 100 µM (inactive)	> 100 µM (inactive)	> 100 µM (inactive)	> 100 µM (inactive)	> 100 µM (inactive)	> 100 µM (inactive)	> 100	> 100 µM (inactive)	> 100 µM (inactive)	> 100 µM (inactive)	> 100 µM (inactive)	> 100 µM (inactive)	> 100 µM (inactive)	> 100 µM (inactive)	> 100 µM (inactive)
CCCCCNC(=O)c1c(O)[nH]c(=S)[nH]c1=O	> 100 µM (inactive)	–	–	> 100 µM (inactive)	> 100 µM (inactive)	66.8 µM (inactive)	> 100 µM (inactive)	> 100 µM (inactive)	> 100 µM (inactive)	> 100 µM (inactive)	> 100 µM (inactive)	90.6	> 100 µM (inactive)	66.5 µM (inactive)	> 100 µM (inactive)	> 100 µM (inactive)	–	> 100 µM (inactive)	96.8 µM (inactive)	> 100 µM (inactive)
CC(=O)C(/N=N\C1CCC(S(=O)(=O)NB2N=CS2)CC1)C(=O)Nc1ccccc1C (centres undefined)	16 µM (inactive)	19.3 µM (inactive)	18.8 µM (inactive)	19.8 µM (inactive)	17.9 µM (inactive)	13.7 µM (inactive)	–	14.7 µM (inactive)	27 µM (inactive)	20.9 µM (inactive)	25.6 µM (inactive)	10.5	20 µM (inactive)	13 µM (inactive)	18.3 µM (inactive)	16.3 µM (inactive)	17.5 µM (inactive)	31.1 µM (inactive)	16.7 µM (inactive)	19 µM (inactive)
CN1CC(c2ccccc2)N(CCCCN2CC(c3ccccc3)N(C)CC2c2ccccc2)CC1c1ccccc1 (centres undefined)	31.7 µM (inactive)	59 µM (inactive)	57.9 µM (inactive)	> 100 µM (inactive)	30.9 µM (inactive)	–	14.8 µM (inactive)	> 100 µM (inactive)	> 100 µM (inactive)	28.8 µM (inactive)	54.1 µM (inactive)	29.2	28.4 µM (inactive)	33.4 µM (inactive)	23.2 µM (inactive)	35.2 µM (inactive)	24.4 µM (inactive)	–	36 µM (inactive)	20.9 µM (inactive)
